Test results taken from ChEMBL document CHEMBL5726197, “Oxoazetidine derivatives, process for the preparation thereof and use thereof in human medicine and in cosmetics” (2017).

Key:
[1] = target: Melanocyte-stimulating hormone receptor (Homo sapiens, UniProt Q01726); test: (§1) Transactivation Assay: In the presence of an activator (agonist), the melanocortin receptor will activate the cAMP pathway which, via the CRE-Luc vector, will result in the synthesis of luciferase. After the addition of a lysis buffer containing a luminescent substrate for luciferase, it will be possible to measure the luminescence proportional to the degree of activation or of inhibition of the receptor. The products are solubilized at 10 mM in DMSO. They are tested in the form of dose-response at a final DMSO concentration of 0.1%. The range comprising 10 points and one zero begins at 10 μM with 4-fold dilutions. For testing agonists, the products are tested alone. For determining the behaviour of antagonists, the products of interest are tested in the presence of 1 nM NDP-MSH (reference agonist). The cells are seeded at a rate of 5000 cells per well (384 well plate) in serum-free DMEM medium, and incubated overnight at 37° C., 5% CO2.The products and the reference ligand (NDP-MSH) are added the following day, and the plates are again incubated for 6 h at 37° C., 5% CO2. After the addition of lysis buffer containing luciferin, the plates are read on a Top-Count instrument. The results are standardized as % activity using the 100% (cells+NDP-MSH at 10 nM) and 0% (cells alone) controls. An EC50 is calculated for each product using the XLFit software. The results are given in nM. […]
Melanocortin receptor 4 = Melanocortin receptor 4 (Homo sapiens, UniProt P32245); test: as §1
Melanocortin receptor 4, sequence (P32245 whole entry): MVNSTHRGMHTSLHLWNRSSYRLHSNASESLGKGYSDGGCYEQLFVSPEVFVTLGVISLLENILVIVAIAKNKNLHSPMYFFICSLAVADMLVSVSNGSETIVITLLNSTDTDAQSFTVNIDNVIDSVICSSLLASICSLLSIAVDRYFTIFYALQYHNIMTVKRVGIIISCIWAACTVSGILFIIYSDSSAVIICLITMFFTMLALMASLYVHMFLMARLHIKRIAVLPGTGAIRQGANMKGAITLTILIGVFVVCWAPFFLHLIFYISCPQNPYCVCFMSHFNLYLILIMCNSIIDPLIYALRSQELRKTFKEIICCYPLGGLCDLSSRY

Melanocyte-stimulating hormone receptor, sequence (Q01726 whole entry): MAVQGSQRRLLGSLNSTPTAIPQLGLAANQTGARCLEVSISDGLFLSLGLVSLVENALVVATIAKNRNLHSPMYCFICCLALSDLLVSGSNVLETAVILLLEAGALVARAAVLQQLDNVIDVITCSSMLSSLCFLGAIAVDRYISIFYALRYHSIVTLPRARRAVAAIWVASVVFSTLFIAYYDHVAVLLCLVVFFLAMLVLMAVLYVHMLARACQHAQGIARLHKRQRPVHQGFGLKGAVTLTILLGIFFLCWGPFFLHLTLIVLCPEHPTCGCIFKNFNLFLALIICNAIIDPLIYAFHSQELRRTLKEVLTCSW

CCCCCC1(c2ccccc2OC)CN(C(=O)[C@@H](Cc2ccc(OC)cc2)NC(=O)CCc2c[nH]cn2)C1
EC50 [1]: 60 nM | EC50 (Melanocortin receptor 4): 30 nM
